This is an account of results in ChEMBL document CHEMBL1201862, “PubChem BioAssay data set” (2004).

What all share (assay type): functional
The target in test [1] is Dual specificity tyrosine-phosphorylation-regulated kinase 1B (Homo sapiens, UniProt Q9Y463). The test is described as follows: Navigating the Kinome. Panel member name: DYRK1B.
Test [2] deals with Macrophage colony-stimulating factor 1 receptor (Homo sapiens, UniProt P07333).
For test [3], the target named is T1, Tyrosine-protein kinase receptor TYRO3 (Homo sapiens, UniProt Q06418).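 Further: TYRO3 value obtained as one member of a kinome-wide profiling panel.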
T1 sequence (Q06418 whole entry): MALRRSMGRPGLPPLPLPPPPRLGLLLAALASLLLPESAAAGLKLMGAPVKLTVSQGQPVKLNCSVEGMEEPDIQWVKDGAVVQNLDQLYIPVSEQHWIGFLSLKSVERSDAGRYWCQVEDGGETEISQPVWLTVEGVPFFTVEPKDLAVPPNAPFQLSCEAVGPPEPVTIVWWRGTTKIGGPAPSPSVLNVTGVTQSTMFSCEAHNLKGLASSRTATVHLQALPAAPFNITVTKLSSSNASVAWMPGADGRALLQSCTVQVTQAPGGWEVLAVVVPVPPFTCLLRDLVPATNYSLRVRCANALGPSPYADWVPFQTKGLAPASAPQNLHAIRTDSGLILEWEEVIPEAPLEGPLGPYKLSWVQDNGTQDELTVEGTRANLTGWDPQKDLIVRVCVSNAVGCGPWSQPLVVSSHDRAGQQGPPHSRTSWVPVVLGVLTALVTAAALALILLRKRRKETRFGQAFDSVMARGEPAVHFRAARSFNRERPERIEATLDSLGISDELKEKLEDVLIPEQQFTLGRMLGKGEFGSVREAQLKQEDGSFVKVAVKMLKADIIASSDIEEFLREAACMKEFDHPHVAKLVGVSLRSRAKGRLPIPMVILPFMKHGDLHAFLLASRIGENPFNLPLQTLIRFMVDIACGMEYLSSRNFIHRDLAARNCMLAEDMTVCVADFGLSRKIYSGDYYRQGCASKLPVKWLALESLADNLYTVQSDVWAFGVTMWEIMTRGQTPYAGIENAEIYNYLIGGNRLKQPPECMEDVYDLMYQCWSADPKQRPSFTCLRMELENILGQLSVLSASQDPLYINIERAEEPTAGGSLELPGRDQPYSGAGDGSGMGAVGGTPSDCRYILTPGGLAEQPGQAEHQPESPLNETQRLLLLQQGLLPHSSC

Test [4] has as its target Protein kinase C theta type (Homo sapiens, UniProt Q04759). The test is described as follows: Navigating the Kinome. Panel member name: PRKCQ.
In test [5] the target is Tyrosine-protein kinase Fyn (Homo sapiens, UniProt P06241).
Test [6] has as its target BDNF/NT-3 growth factors receptor (Homo sapiens, UniProt Q16620).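 Further: NTRK2 measured as one member of a broad kinome-wide kinase profiling panel.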
Test [7] has as its target Leucine-rich repeat serine/threonine-protein kinase 2 (Homo sapiens, UniProt Q5S007).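 Further: value from a broad kinome-wide panel profiling study in which LRRK2 was one of the kinases tested.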
The target of test [8] is 5'-AMP-activated protein kinase catalytic subunit alpha-1 (Homo sapiens, UniProt Q13131).
Test [9] concerns the target Glycogen synthase kinase-3 beta (Homo sapiens, UniProt P49841).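 Further: value comes from a broad kinome profiling panel, with GSK3B as the panel member.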
For test [10], the target named is ALK tyrosine kinase receptor (Homo sapiens, UniProt Q9UM73).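 Further: ALK tested as one member of a kinase panel screen.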
Test [11] addresses Rho-associated protein kinase 1 (Homo sapiens, UniProt Q13464).
For test [12], the target named is Dual specificity protein kinase CLK4 (Homo sapiens, UniProt Q9HAZ1).
The target in test [13] is Dual specificity mitogen-activated protein kinase kinase 1 (Homo sapiens, UniProt Q02750). The test is described as follows: Navigating the Kinome. Panel member name: MAP2K1.
Test [14] deals with Platelet-derived growth factor receptor alpha (Homo sapiens, UniProt P16234). The test is described as follows: Navigating the Kinome. Panel member name: PDGFRA.
The target in test [15] is Leukocyte tyrosine kinase receptor (Homo sapiens, UniProt P29376). The test is described as follows: Navigating the Kinome. Panel member name: LTK.
Test [16] concerns the target T2, Apoptotic protease-activating factor 1 (Homo sapiens, UniProt O14727).
T2 sequence (O14727 whole entry): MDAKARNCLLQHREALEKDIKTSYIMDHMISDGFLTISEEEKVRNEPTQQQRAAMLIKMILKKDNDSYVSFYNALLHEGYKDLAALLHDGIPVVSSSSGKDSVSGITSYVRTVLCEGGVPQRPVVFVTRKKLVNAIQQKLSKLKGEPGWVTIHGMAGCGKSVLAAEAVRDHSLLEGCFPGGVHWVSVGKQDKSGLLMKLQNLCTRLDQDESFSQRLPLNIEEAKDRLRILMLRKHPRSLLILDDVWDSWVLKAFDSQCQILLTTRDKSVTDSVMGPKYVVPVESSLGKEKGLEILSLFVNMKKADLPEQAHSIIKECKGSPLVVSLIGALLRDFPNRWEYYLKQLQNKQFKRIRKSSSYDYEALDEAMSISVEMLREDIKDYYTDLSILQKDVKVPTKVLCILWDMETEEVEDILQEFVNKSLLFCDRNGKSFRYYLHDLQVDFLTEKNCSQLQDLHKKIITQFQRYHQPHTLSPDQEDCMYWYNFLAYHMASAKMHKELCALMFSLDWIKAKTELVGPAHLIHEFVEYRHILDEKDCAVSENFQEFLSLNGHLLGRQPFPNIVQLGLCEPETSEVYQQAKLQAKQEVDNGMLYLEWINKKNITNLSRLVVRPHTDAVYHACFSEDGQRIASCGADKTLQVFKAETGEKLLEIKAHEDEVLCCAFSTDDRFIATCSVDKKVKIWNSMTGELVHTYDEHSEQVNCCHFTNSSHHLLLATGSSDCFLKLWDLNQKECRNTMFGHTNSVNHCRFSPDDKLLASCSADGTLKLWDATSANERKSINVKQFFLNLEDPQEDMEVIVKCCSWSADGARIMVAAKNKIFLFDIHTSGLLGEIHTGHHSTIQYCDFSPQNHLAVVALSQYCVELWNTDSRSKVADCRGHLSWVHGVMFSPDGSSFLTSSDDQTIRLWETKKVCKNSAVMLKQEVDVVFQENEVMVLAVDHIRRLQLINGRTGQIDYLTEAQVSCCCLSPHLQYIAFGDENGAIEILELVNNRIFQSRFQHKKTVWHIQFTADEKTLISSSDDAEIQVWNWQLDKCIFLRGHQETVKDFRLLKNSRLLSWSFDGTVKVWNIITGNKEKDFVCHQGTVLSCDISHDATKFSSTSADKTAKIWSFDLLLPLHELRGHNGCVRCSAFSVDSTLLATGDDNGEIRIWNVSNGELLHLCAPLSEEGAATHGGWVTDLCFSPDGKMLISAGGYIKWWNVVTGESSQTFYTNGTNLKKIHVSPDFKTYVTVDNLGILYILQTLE

Active and inactive are the calls of the source.

Sequence of Dual specificity mitogen-activated protein kinase kinase 1 (Q02750 whole entry): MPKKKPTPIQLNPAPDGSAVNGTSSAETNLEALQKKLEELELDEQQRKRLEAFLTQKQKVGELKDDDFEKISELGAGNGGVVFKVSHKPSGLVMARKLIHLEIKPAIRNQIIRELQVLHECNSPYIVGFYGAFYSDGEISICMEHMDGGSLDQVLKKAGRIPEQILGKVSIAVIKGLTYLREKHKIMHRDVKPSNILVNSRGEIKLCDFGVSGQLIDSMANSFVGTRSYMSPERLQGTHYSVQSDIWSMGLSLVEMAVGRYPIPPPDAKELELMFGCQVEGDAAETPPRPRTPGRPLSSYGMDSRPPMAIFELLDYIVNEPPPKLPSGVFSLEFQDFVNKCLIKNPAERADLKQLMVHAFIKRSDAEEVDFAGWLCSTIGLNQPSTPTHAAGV
Sequence of Leucine-rich repeat serine/threonine-protein kinase 2 (Q5S007 whole entry): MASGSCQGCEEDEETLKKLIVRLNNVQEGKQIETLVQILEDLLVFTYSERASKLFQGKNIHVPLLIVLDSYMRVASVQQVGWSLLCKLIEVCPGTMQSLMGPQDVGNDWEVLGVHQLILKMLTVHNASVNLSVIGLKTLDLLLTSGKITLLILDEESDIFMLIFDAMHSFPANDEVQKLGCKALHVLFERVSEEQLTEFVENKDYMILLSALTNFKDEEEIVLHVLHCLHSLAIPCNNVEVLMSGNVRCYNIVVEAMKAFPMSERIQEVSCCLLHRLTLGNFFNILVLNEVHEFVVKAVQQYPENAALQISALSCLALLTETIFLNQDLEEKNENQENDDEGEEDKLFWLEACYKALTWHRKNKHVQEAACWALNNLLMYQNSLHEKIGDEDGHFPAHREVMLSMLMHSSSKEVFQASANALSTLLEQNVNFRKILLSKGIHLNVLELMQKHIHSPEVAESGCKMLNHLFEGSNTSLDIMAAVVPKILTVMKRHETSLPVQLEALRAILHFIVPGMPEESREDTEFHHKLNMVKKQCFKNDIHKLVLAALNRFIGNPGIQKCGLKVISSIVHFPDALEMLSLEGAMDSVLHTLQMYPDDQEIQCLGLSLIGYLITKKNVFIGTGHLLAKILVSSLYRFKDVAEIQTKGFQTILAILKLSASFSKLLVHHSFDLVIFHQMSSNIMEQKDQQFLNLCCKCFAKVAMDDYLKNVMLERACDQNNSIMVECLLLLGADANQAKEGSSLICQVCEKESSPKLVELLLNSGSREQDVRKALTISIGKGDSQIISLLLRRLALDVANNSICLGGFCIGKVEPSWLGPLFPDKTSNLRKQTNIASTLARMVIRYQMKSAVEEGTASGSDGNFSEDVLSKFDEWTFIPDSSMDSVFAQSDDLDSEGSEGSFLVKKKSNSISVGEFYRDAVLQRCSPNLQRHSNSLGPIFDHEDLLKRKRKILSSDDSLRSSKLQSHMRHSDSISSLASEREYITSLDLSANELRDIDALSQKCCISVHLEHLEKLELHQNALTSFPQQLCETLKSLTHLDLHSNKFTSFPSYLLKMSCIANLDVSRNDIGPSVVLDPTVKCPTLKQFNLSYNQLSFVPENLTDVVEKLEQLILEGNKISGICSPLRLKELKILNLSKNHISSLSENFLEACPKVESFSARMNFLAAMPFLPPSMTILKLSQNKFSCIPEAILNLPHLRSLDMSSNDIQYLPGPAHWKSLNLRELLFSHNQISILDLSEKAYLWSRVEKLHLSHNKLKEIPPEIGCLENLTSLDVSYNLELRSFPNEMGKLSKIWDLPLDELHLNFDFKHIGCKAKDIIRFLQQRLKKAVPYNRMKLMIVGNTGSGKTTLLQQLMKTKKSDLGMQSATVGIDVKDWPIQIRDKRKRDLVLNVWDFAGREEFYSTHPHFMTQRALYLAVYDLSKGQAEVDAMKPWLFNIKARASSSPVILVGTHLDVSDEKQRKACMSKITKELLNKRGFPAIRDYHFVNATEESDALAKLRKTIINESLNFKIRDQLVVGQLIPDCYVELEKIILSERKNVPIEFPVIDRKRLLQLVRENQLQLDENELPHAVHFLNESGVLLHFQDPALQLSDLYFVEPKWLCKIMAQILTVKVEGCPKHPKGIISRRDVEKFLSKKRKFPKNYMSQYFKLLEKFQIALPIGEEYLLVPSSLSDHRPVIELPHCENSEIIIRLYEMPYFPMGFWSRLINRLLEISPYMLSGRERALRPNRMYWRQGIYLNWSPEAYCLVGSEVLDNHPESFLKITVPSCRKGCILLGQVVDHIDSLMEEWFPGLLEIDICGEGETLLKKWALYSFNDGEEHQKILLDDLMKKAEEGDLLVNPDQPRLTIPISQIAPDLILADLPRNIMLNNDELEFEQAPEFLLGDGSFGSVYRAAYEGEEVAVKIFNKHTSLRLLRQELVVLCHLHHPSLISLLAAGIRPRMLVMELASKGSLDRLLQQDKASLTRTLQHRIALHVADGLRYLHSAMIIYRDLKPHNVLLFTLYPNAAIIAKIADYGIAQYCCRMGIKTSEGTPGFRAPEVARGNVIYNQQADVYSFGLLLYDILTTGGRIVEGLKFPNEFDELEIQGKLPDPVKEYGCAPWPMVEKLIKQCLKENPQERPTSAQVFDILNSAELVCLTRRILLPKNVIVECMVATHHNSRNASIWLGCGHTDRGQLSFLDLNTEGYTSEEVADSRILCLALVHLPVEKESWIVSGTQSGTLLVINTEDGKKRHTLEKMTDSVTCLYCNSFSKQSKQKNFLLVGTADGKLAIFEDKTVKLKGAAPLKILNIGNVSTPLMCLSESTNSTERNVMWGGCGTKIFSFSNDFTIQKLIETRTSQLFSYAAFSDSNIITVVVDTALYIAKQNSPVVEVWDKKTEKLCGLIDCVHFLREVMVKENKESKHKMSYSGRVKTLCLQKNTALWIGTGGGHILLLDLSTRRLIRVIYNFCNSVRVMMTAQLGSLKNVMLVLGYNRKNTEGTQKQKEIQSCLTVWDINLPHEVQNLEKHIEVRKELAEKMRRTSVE
Sequence of Platelet-derived growth factor receptor alpha (P16234 whole entry): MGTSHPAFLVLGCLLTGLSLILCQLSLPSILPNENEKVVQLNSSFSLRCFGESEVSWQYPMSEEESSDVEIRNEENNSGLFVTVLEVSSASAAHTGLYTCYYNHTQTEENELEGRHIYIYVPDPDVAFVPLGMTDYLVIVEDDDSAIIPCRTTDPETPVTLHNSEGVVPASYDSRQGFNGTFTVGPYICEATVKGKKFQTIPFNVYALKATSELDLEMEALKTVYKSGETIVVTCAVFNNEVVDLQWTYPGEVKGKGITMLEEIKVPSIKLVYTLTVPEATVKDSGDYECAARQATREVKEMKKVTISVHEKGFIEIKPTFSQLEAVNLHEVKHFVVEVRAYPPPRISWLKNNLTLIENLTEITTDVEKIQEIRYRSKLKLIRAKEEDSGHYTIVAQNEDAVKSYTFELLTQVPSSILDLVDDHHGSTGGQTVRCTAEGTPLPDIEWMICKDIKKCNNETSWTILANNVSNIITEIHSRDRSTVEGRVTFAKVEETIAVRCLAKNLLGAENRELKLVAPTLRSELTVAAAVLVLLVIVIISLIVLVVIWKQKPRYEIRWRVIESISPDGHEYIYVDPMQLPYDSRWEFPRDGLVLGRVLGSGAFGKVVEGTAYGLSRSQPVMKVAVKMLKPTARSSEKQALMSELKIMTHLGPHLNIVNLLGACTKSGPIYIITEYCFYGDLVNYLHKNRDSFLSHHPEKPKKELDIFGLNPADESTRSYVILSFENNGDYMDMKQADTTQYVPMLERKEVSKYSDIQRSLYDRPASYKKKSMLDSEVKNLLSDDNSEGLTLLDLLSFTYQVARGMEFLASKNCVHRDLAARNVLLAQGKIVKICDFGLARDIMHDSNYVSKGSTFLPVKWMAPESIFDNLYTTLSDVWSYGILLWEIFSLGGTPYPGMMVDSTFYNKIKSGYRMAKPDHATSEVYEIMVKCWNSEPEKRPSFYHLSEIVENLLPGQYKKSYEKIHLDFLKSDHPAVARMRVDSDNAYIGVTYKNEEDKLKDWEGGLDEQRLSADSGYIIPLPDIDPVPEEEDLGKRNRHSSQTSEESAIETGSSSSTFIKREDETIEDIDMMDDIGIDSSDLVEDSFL
Sequence of Macrophage colony-stimulating factor 1 receptor (P07333 whole entry): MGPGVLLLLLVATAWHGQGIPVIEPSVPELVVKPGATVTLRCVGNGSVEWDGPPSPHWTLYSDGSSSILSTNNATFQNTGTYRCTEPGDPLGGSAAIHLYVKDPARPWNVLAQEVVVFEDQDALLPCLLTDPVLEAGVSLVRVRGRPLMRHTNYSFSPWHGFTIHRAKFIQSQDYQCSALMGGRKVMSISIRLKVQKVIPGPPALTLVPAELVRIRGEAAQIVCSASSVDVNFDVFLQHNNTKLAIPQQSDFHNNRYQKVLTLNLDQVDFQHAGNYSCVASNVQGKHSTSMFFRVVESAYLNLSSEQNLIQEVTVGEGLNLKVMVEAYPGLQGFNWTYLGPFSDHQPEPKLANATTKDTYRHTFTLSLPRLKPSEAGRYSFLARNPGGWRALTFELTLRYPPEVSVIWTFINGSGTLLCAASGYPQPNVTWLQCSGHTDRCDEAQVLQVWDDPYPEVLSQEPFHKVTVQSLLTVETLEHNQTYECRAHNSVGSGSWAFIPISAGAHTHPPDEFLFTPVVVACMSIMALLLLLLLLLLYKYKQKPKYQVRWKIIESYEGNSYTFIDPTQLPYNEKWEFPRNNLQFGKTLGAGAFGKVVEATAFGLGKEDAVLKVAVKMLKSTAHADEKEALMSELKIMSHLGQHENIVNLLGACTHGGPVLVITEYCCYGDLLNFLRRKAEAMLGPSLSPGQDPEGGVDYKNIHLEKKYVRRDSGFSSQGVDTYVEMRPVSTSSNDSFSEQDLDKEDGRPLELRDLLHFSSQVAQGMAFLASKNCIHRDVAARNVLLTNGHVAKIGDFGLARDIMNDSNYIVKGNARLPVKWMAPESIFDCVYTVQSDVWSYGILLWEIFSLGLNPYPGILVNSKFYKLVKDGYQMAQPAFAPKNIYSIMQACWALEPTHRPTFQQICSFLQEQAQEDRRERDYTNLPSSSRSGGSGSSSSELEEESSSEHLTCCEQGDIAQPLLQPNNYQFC

As a reminder, the Ki is a measure of affinity in units of concentration, obtained from inhibition or displacement. With `CCC1CC(NS(=O)(=O)C2CC2)CC1c1ncc2cnc3[nH]ccc3n12` (stereo not given), the Ki is > 2.51 µM (inactive) in test [1]; 1.58 µM (active) in test [2]; > 2 µM (inactive) in test [3]; 0.2 µM (active) in test [4]; > 6.31 µM (inactive) in test [5]; > 3.98 µM (inactive) in test [6]. Besides, the inhibition constant (Ki) was 0.1 µM (active) in [7]; 2 µM (active) in [8]; > 3.98 µM (inactive) in [9]; 1 µM (active) in test [10]; 0.0316 µM (active) in test [11]; > 1.58 µM (inactive) in test [12]. Further, the Ki in test [13] was > 3.16 µM (inactive); in test [14], > 2.51 µM (inactive); in test [15], 0.2 µM (active).

Regarding `O=C(Nc1cccc(C(F)(F)F)n1)Nc1ccnc2cc(OC(F)F)ccc12`, the Ki was > 2.51 µM (inactive) in test [1]; > 2.51 µM (inactive) in test [2]; > 3.16 µM (inactive) in test [3]; > 2.51 µM (inactive) in [4]; > 6.31 µM (inactive) in [5]; > 3.98 µM (inactive) in test [6]. Also, the Ki is > 2.51 µM (inactive) in test [7]; > 3.16 µM (inactive) in test [8]; > 6.31 µM (inactive) in test [10]; > 3.98 µM (inactive) in test [11]; > 3.16 µM (inactive) in [13]; > 2.51 µM (inactive) in test [14]. Besides, in [15], the Ki is > 2.51 µM (inactive).

For the molecule `O=c1[nH]c2cc(Br)cnc2[nH]1`, the inhibitory constant (Ki) was 10 µM (active) in [1]; > 100 µM (inactive) in test [2]; 31.6 µM (active) in test [3]; 31.6 µM (active) in test [4]; 100 µM (active) in [5]; 3.98 µM (active) in test [7]. The inhibitory constant (Ki) was 25.1 µM (active) in [8]; 63.1 µM (active) in test [9]; 63.1 µM (active) in [10]; 50.1 µM (active) in test [11]; 1.26 µM (active) in [12]; 50.1 µM (active) in test [13]. The results for the inhibition constant (Ki) in [14] and in test [15] were 5.01 µM (active) and 7.94 µM (active), respectively.

Usually IC50 stands for the point on the concentration scale where inhibition reaches its midpoint. On to `O=C(Cc1ccccc1)NC1(O)C(=O)c2ccccc2C1=O`, for which, in [16], the half-inhibitory concentration (IC50) is 11 µM (active).

For the molecule `COC(=O)c1nc(-c2ccc3c(n2)C(=O)C(=N)C(OC)=C3O)c(N)c(-c2ccc(OC)c(OC)c2O)c1C`, the IC50 in test [16] was 3.39 µM (active).

As to `Cc1cc(C)c(S(=O)(=O)/N=C2\C=C(Nc3ccc(C(=O)O)cc3)C(=O)c3ccccc32)c(C)c1`, in test [16], the half-inhibitory concentration (IC50) was 6.01 µM (active).

As for `O=C(Nc1cccc(C(F)(F)F)n1)Nc1ccnc2cc(Cl)ccc12`, the Ki in test [1] is > 2.51 µM (inactive); in [2] it was > 2.51 µM (inactive); in [3] it was > 3.16 µM (inactive); in [4], > 2.51 µM (inactive); in test [5] it was > 6.31 µM (inactive); in [6], > 3.98 µM (inactive). Moreover, the Ki in test [7] was > 2.51 µM (inactive); in [8], > 3.16 µM (inactive); in test [9], 0.00794 µM (active); in test [10] it was > 6.31 µM (inactive); in [11] it was > 3.98 µM (inactive); in [12], 1.26 µM (active). For the same molecule, the Ki is 3.16 µM (active) in test [13], > 2.51 µM (inactive) in test [14] and > 2.51 µM (inactive) in test [15].
